# Assays:
# Assay in all cases: relative viability (nuclei count vs DMSO), 5 days (fraction); higher = more cells survive
# [1] = system: NCI-H1944
# In short: (§1)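 Lung cancer cell lines in 1536-well plates were dosed by pin tool the day after seeding, either with one drug alone or with a fixed anchor-drug dose plus five library-drug doses (not always all listed) in √10 steps. After 5 days, cells were fixed and their nuclei stained in one step (final 0.05% Triton X-100, 1% formaldehyde, 1 ug/ml Hoechst), then counted on 4× images. Relative viability is the nuclei count in treated wells divided by that in vehicle wells. Values are medians of duplicate plates.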
# [2] = system: NCI-H1975
# In short: as §1
# [3] = system: NCI-H1734
# In short: as §1
# [4] = system: NCI-H2170
# In short: as §1
# [5] = system: PC-3 [JPC-3]
# In short: as §1
# [6] = system: A-427
# In short: as §1
# [7] = system: EKVX
# In short: as §1
# [8] = system: LOU-NH91
# In short: as §1
# [9] = system: NCI-H441
# In short: as §1
# [10] = system: SW 900
# In short: as §1
# [11] = system: NCI-H520
# In short: as §1
# [12] = system: HCC-366
# In short: as §1
# [13] = system: NCI-H1666
# In short: as §1
# [14] = system: ChaGo-K-1
# In short: as §1
# [15] = system: COR-L 105
# In short: as §1
# [16] = system: NCI-H1755
# In short: as §1
# [17] = system: LK-2
# In short: as §1
# [18] = system: SK-MES-1
# In short: as §1
# [19] = system: NCI-H23
# In short: as §1
# [20] = system: NCI-H596
# In short: as §1
# [21] = system: H3255
# In short: as §1
# [22] = system: EMC-BAC-2
# In short: as §1
smiles,measurement,setting,value
COc1cc(N2CCC(C(N)=O)CC2)ccc1Nc1nc(N)c(Cl)c(Nc2ccccc2S(=O)(=O)C(C)C)n1 [HG-5-88-01] + O=C(CCCCCCC(=O)Nc1ccccc1)NO [Vorinostat] (partner 1 µM),relative viability,[1]; first compound 0.04 µM,0.623
same,relative viability,[1]; first compound 0.1265 µM,0.627
same,relative viability,[1]; first compound 0.4 µM,0.645
same,relative viability,[1]; first compound 1.265 µM,0.55
same,relative viability,[1]; first compound 4 µM,0.568
same,relative viability,[2]; first compound 0.04 µM,0.734
same,relative viability,[2]; first compound 0.1265 µM,0.711
same,relative viability,[2]; first compound 0.4 µM,0.689
same,relative viability,[2]; first compound 1.265 µM,0.612
same,relative viability,[2]; first compound 4 µM,0.35
same,relative viability,[3]; first compound 0.04 µM,0.969
same,relative viability,[3]; first compound 0.1265 µM,0.871
same,relative viability,[3]; first compound 0.4 µM,0.833
same,relative viability,[3]; first compound 1.265 µM,0.773
same,relative viability,[3]; first compound 4 µM,0.795
same,relative viability,[4]; first compound 0.04 µM,0.837
same,relative viability,[4]; first compound 0.1265 µM,0.9
same,relative viability,[4]; first compound 0.4 µM,0.773
same,relative viability,[4]; first compound 1.265 µM,0.594
same,relative viability,[4]; first compound 4 µM,0.892
same,relative viability,[5]; first compound 0.04 µM,0.879
same,relative viability,[5]; first compound 0.1265 µM,0.756
same,relative viability,[5]; first compound 0.4 µM,0.58
same,relative viability,[5]; first compound 1.265 µM,0.724
same,relative viability,[5]; first compound 4 µM,0.303
same,relative viability,[6]; first compound 0.04 µM,0.892
same,relative viability,[6]; first compound 0.1265 µM,0.859
same,relative viability,[6]; first compound 0.4 µM,0.884
same,relative viability,[6]; first compound 1.265 µM,0.912
same,relative viability,[6]; first compound 4 µM,0.726
same,relative viability,[7]; first compound 0.04 µM,0.789
same,relative viability,[7]; first compound 0.1265 µM,0.775
same,relative viability,[7]; first compound 0.4 µM,0.712
same,relative viability,[7]; first compound 4 µM,0.63
same,relative viability,[8]; first compound 0.04 µM,0.869
same,relative viability,[8]; first compound 0.1265 µM,0.823
same,relative viability,[8]; first compound 0.4 µM,0.723
same,relative viability,[8]; first compound 1.265 µM,0.508
same,relative viability,[8]; first compound 4 µM,0.469
same,relative viability,[9]; first compound 0.04 µM,0.779
same,relative viability,[9]; first compound 0.1265 µM,0.736
same,relative viability,[9]; first compound 0.4 µM,0.678
same,relative viability,[9]; first compound 1.265 µM,0.865
same,relative viability,[9]; first compound 4 µM,0.725
same,relative viability,[10]; first compound 0.04 µM,0.583
same,relative viability,[10]; first compound 0.1265 µM,0.334
same,relative viability,[10]; first compound 0.4 µM,0.525
same,relative viability,[10]; first compound 1.265 µM,0.447
same,relative viability,[10]; first compound 4 µM,0.354
same,relative viability,[11]; first compound 0.04 µM,0.747
same,relative viability,[11]; first compound 0.1265 µM,0.601
same,relative viability,[11]; first compound 0.4 µM,0.803
same,relative viability,[11]; first compound 1.265 µM,0.79
same,relative viability,[11]; first compound 4 µM,0.781
same,relative viability,[12]; first compound 0.04 µM,0.438
same,relative viability,[12]; first compound 0.1265 µM,0.452
same,relative viability,[12]; first compound 0.4 µM,0.339
same,relative viability,[12]; first compound 1.265 µM,0.336
same,relative viability,[12]; first compound 4 µM,0.283
same,relative viability,[13]; first compound 0.04 µM,0.984
same,relative viability,[13]; first compound 0.1265 µM,1
same,relative viability,[13]; first compound 0.4 µM,0.975
same,relative viability,[13]; first compound 1.265 µM,0.92
same,relative viability,[13]; first compound 4 µM,0.828
same,relative viability,[14]; first compound 0.04 µM,0.75
same,relative viability,[14]; first compound 0.1265 µM,0.71
same,relative viability,[14]; first compound 0.4 µM,0.737
same,relative viability,[14]; first compound 1.265 µM,0.786
same,relative viability,[14]; first compound 4 µM,0.589
same,relative viability,[15]; first compound 0.04 µM,0.849
same,relative viability,[15]; first compound 0.1265 µM,0.722
same,relative viability,[15]; first compound 0.4 µM,0.847
same,relative viability,[15]; first compound 1.265 µM,0.639
same,relative viability,[15]; first compound 4 µM,0.59
same,relative viability,[16]; first compound 0.04 µM,0.79
same,relative viability,[16]; first compound 0.1265 µM,0.804
same,relative viability,[16]; first compound 0.4 µM,0.715
same,relative viability,[16]; first compound 1.265 µM,0.748
same,relative viability,[16]; first compound 4 µM,0.744
same,relative viability,[17]; first compound 0.04 µM,0.326
same,relative viability,[17]; first compound 0.1265 µM,0.411
same,relative viability,[17]; first compound 0.4 µM,0.466
same,relative viability,[17]; first compound 4 µM,0.306
same,relative viability,[18]; first compound 0.04 µM,1.14
same,relative viability,[18]; first compound 0.1265 µM,1.03
same,relative viability,[18]; first compound 0.4 µM,1.1
same,relative viability,[18]; first compound 1.265 µM,0.979
same,relative viability,[18]; first compound 4 µM,1.21
same,relative viability,[19]; first compound 0.04 µM,0.793
same,relative viability,[19]; first compound 0.1265 µM,0.752
same,relative viability,[19]; first compound 0.4 µM,0.609
same,relative viability,[19]; first compound 1.265 µM,0.538
same,relative viability,[19]; first compound 4 µM,0.307
same,relative viability,[20]; first compound 0.04 µM,0.604
same,relative viability,[20]; first compound 0.1265 µM,0.597
same,relative viability,[20]; first compound 0.4 µM,0.641
same,relative viability,[20]; first compound 1.265 µM,0.571
same,relative viability,[20]; first compound 4 µM,0.532
same,relative viability,[21]; first compound 0.04 µM,0.77
same,relative viability,[21]; first compound 0.1265 µM,0.907
same,relative viability,[21]; first compound 0.4 µM,0.729
same,relative viability,[21]; first compound 4 µM,0.741
same,relative viability,[22]; first compound 0.04 µM,0.503
same,relative viability,[22]; first compound 0.1265 µM,0.442
same,relative viability,[22]; first compound 0.4 µM,0.354
same,relative viability,[22]; first compound 1.265 µM,0.518
same,relative viability,[22]; first compound 4 µM,0.448
